Patent US7176230B2, “Synthesis of indole analogs of 1-benzyl-3-(5′-hydroxymethyl-2′-furyl) indazole (YC-1) as anti-platelet agents” (Industrial Technology Research Institute, priority 2004, dated 2007)

Experiments:
[1] = system: thrombin-induced platelet aggregation; experiment: Platelet aggregation induced by thrombin (turbidimetric, washed platelet suspension); format: cell-based, rabbit; conditions: for IC50: rabbit platelets incubated with test compound at 37° C. for 1 min, then thrombin (0.1 unit/mL); for inhibition of thrombin-induced platelet aggregation (in words): discussion of Table 1
Description: (§1) Collagen (type 1, bovine Achilles tendon), obtained from Sigma Chemical Co., was homogenized in […] HOAc and stored at −70° C. Arachidonic acid, bovine serum albumin (BSA), EDTA (disodium salt), sodium citrate, dimethyl sulfoxide (DMSO), and platelet activating factor (PAF) were purchased from Sigma Chemical Co. Thrombin (bovine) was obtained from Parke-Davis Co. and dissolved in 50% (viv) glycerol to give a stock solution of 100 NIH units/mL.
(§2) Blood was collected from the rabbit marginal ear vein and was mixed with EDTA to a final concentration of 6 mM. It was centrifuged at 90 g for 10 min at room temperature, and the supernatant was obtained as platelet-rich plasma. The latter was further centrifuged at 500 g for 10 min. The platelet pellets were washed with Tyrode's solution without EDTA. After centrifugation at the same conditions, the platelet pellets were finally suspended in Tyrode's solution of the following composition (mM): NaCl (136.8), KCl (2.81, NaHCO3 (11.9), MgCl2 (1.1), NaH2PO4 (0.33), CaCl2 (1.0), and glucose (11.2). Platelet numbers were counted by Coulter Counter (Model ZM) and adjusted to 4.5×10^8 […].
(§3) Aggregation was measured by the turbidmetric method with a dual-channel Lumiaggregometer (Model 1020, Payton, Canada). All glassware was siliconized. One minute before the addition of the aggregation inducer, the platelet suspension was stirred at 900 rpm. The percentage of aggregation was calculated as described previously.

[2] = system: AA-induced platelet aggregation; experiment: Platelet aggregation induced by AA (turbidimetric, washed platelet suspension); format: cell-based, rabbit; conditions: for IC50: rabbit platelets incubated with test compound at 37° C. for 1 min, then AA (100 μM); for inhibition of AA-induced platelet aggregation (in words): discussion of Table 1
Description: as §1, §2, §3

[3] = system: collagen-induced platelet aggregation; experiment: Platelet aggregation induced by collagen (turbidimetric, washed platelet suspension); format: cell-based, rabbit; conditions: for IC50: rabbit platelets incubated with test compound at 37° C. for 1 min, then collagen (10 μg/mL); for inhibition of collagen-induced platelet aggregation (in words): discussion of Table 1
Description: as §1, §2, §3

[4] = system: PAF-induced platelet aggregation; experiment: Platelet aggregation induced by PAF (turbidimetric, washed platelet suspension); format: cell-based, rabbit; conditions: for IC50: rabbit platelets incubated with test compound at 37° C. for 1 min, then PAF (2 ng/mL); for inhibition of PAF-induced platelet aggregation (in words): discussion of Table 1
Description: as §1, §2, §3

platelet aggregation = experiment: Antiplatelet aggregation activity, overall statements over the four inducers; format: cell-based, rabbit; conditions: discussion of Table 1, all inducers
Description: as §1, §2, §3

[5] = Oryctolagus cuniculus, Platelet, 1 min

IC50 [1] [µM]	IC50 [2] [µM]	IC50 [3] [µM]	IC50 [4] [µM]	IC50 [1, 5] [µM]	IC50 [2, 5] [µM]	IC50 [3, 5] [µM]	IC50 [4, 5] [µM]	melting point [°C]	SMILES	anti-platelet activity overall (in words) (platelet aggregation)	inhibition of collagen-induced platelet aggregation (in words) [3]	inhibition of PAF-induced platelet aggregation (in words) [4]	inhibition of thrombin-induced platelet aggregation (in words) [1]	inhibition of AA-induced platelet aggregation (in words) [2]
–	–	–	–	> 300	> 300	168	170	122	OCc1ccc(-c2cn(Cc3ccccc3)c3ccccc23)cc1 [Compound 10, N-Benzyl-3-(4-hydroxymethylphenyl)indole]	–	inhibited	inhibited	–	–
173	94.9	73.7	164	–	–	–	–	–	O=S(=O)(c1ccccc1)n1cc(-c2ccc(CO)o2)c2ccccc21 [Compound 16, N-Benzenesulfonyl-3-(5′-hydroxymethyl-2′-furyl)indole]	–	significant inhibition	significant inhibition	significant inhibition	significant inhibition
> 300	154	131	171	–	–	–	–	–	O=S(=O)(c1ccccc1)n1cc(-c2ccc(CO)s2)c2ccccc21 [Compound 17, N-Benzenesulfonyl-3-(5′-hydroxymethyl-2′-thienyl)indole]	–	excellent inhibitory activity	excellent inhibitory activity	impaired its inhibitory activity	excellent inhibitory activity
> 300	38.2	51.1	> 300	–	–	–	–	–	O=C(c1ccccc1)n1cc(-c2ccc(CO)o2)c2ccccc21 [Compound 32, N-Benzoyl-3-(5′-hydroxymethyl-2′-furyl)indole]	–	excellent inhibitory activity	inefficient	inefficient	excellent inhibitory activity
175	90.9	83.9	169	–	–	–	–	–	COc1cccc(C(=O)n2cc(-c3ccc(CO)o3)c3ccccc32)c1 [Compound 33, N-(3′-Methoxybenzoyl)-3-(5′-hydroxymethyl-2′-furyl)indole]	comparable with YC-1	significant inhibition	significant inhibition	significant inhibition	significant inhibition
> 300	2.9	30.9	270	–	–	–	–	–	COc1ccc(C(=O)n2cc(-c3ccc(CO)o3)c3ccccc32)cc1 [Compound 34, N-(4′-Methoxybenzoyl)-3-(5′-hydroxymethyl-2′-furyl)indole]	–	potent inhibition	poor inhibition	poor inhibition	potent inhibition
–	–	–	–	180	57	54.6	90	–	OCc1ccc(-c2nn(Cc3ccccc3)c3ccccc23)o1 [YC-1, 1-benzyl-3-(5′-hydroxymethyl-2′-furyl)indazole]	–	–	–	–	–
–	–	–	–	193	101	123	143	–	OCc1ccc(-c2nn(Cc3ccccc3)c3ccccc23)cc1 [YD-1, 1-benzyl-3-(4-hydroxymethylphenyl)indazole, reference compound]	–	–	–	–	–

SMILES	IC50 [1] [µM]	IC50 [2] [µM]	IC50 [3] [µM]	IC50 [4] [µM]	IC50 [1, 5] [µM]	IC50 [2, 5] [µM]	IC50 [3, 5] [µM]	IC50 [4, 5] [µM]	melting point [°C]	anti-platelet activity overall (in words) (platelet aggregation)	inhibition of collagen-induced platelet aggregation (in words) [3]	inhibition of PAF-induced platelet aggregation (in words) [4]	inhibition of thrombin-induced platelet aggregation (in words) [1]	inhibition of AA-induced platelet aggregation (in words) [2]
OCc1ccc(-c2cn(Cc3ccccc3)c3ccccc23)o1 [Compound 7, N-Benzyl-3-(5′-hydroxymethyl-2′-furyl)indole]	> 300	> 300	> 300	> 300	–	–	–	–	–	nearly no anti-platelet activity	–	–	–	–
OCc1ccc(-c2cn(Cc3ccccc3)c3ccccc23)s1 [Compound 8, N-Benzyl-3-(5′-hydroxymethyl-2′-thienyl)indole]	> 300	> 300	> 300	> 300	–	–	–	–	–	did not improve its activity	–	–	–	–
